# Laboratory results taken from a melting point compilation (Tetko et al.; mined from patent text by program, amines drawn as free bases though some values may be those of a salt).
row,SMILES,melting point
1,CCN(CCCCc1coc2c(OC)cccc12)C1COc2c(F)ccc(C(N)=O)c2C1 (stereo not given),112 to 118 °C
2,COC(=O)c1cc(S(N)(=O)=O)cc2c1OCCO2,225 to 226 °C
3,COc1ccc(S(=O)(=O)NC(=N)CCN2CCOC2=O)cc1,115 to 118 °C
4,CC(C)Nc1cccnc1N1CCN(C(=O)c2ccc(C(=O)NCCN3CCOCC3)cc2)CC1,114 to 116 °C
5,CC1(C)C=C(C(=O)NC2COC(C)(C)OCC2O)C(C)(C)N1 (stereo not given),125 to 127 °C
6,Fc1ccc(C(=C(c2ccccc2)C(F)(F)F)c2ccc(OCCBr)cc2)cc1,142 to 144 °C
7,O=C1CCN(c2ccc(C=C3SC(=O)NC3=O)cc2F)CC1,> 200 °C
8,CCc1nc2c(NC(=O)C(C)(C)C)nc3ccccc3c2n1CCCCNS(C)(=O)=O,220 to 221 °C
9,CCCC[Si](C)(C)CCCSCCCNC(=O)n1cc(F)c(=O)[nH]c1=O,71 to 72 °C
10,CCCc1c(OCc2ccc(C(=O)NCCCCc3cccnc3)cc2)ccc(C(C)=O)c1O,91 to 95 °C
11,Cc1cccc(COCC2OC(n3cc(C(F)(F)F)c(=O)[nH]c3=O)CC2O)c1 (stereo not given),169 to 171 °C
12,OCc1cnoc1-c1ccc(F)c(F)c1,72 to 73 °C
13,CNC(=S)C1(c2ccccn2)OCCCS1 (stereo not given),157 °C
14,C=CCON=C(C(=O)OCC)c1csc(N)n1,102 to 104 °C
15,c1ccc(C(NC2C3CC4CC(C3)CC2(OCc2ccc(-c3nc5ccccc5o3)cc2)C4)(c2ccccc2)c2ccccc2)cc1 (stereo not given),208 to 210 °C
16,Cn1c(=O)cc(-c2cccc(Cl)c2)c2cc(C(=O)c3ccc(I)cc3)ccc21,184 °C
17,COC(=O)c1csc(-c2cc3ccccc3[nH]2)n1,69 to 71 °C
18,CCOc1ccc([N+](=O)[O-])c(Nc2ccc(C(C)C)cc2)c1,100 °C
19,COc1cc(CCl)ccc1OCc1nc(-c2cccc([N+](=O)[O-])c2)oc1C,166 to 168 °C
20,Cc1c(Cc2cccc(C(F)(F)F)c2)sc2c(-c3cccc(C(=O)O)c3)cccc12,172 to 173 °C
21,CCNc1nc2ccccc2n(-c2ccc(Cl)cc2)c1=O,192 to 195 °C
22,OCCNCCOc1ccc(C2=C(c3ccccc3)CCCc3cc(O)ccc32)cc1,176 to 178 °C
23,Cc1c(Cl)cc(C(=O)C(O)CC(=O)O)cc1Cl (stereo not given),114 to 118 °C
24,C=CCOc1ccc(OC(C(=O)C(C)(C)C)n2cncn2)cc1 (stereo not given),66 °C

row,SMILES,melting point
1,N#Cc1c(N2CCCCC2)[nH]c2cccnc12,241 to 242 °C
2,CCOC(=O)C1=C(C#N)NC(C)=C(C(=O)OCCN(CC)CC)C1c1cccc([N+](=O)[O-])c1 (stereo not given),150 to 152 °C
3,CCn1ncc2c1ncc1c(N3CCCCC3)nc3cc(C)nn3c12,176 to 177 °C
4,COC(=O)Cc1ccccc1OCc1cncc(OCc2nc(-c3ccccc3)oc2C)c1,77 to 78 °C
5,CCn1nc(-c2ncc(NCc3ccc(OC)cc3)nc2-c2ccccc2)ccc1=O,148 to 150 °C
6,O=C(NC1CCC(OC(=O)N2CCC3(CCCC3)CC2)CC1)C1CCN(C(=O)Oc2ccc(Oc3ccccc3)cc2)CC1 (stereo not given),230 to 231 °C
7,CCCCCS(=O)(=O)NC(=O)CCCCc1cc(OCCCC)nn1Cc1ccc(Cl)cc1Cl,91 to 93 °C
8,COc1cc(N)c(Cl)cc1C(=O)NN1CCN(Cc2ccsc2)CC1,223 to 224 °C
9,COc1ccc(CNC(=O)c2cc(C)ccc2N)cc1,144 to 145 °C
10,Nc1c(-c2ccc(-c3ccc(F)cc3)c(F)c2)nc2ccc(F)cc2c1C(=O)O,245 to 247 °C
11,O=[N+]([O-])c1ccc(C(=NO)c2ccc([N+](=O)[O-])cc2)cc1,194 °C
12,O=c1c2ccc(Cl)cc2[nH]n2cccc12,> 300 °C
13,CCOP(=O)(OCC)Oc1cc(C(F)(F)F)nc(N(C)C)n1,22 to 24 °C
14,CC1(C)OC(C=Cc2ccccn2)=CC1=O,87.5 to 89 °C
15,COc1cc2cc3c(=O)c(C#N)c[nH]c3cc2cc1OCc1ccccc1,> 300 °C
16,COc1ccc(-c2cccc(C#N)n2)cc1,86.3 to 86.6 °C
17,CC(C)(C)OC(=O)NC1Cc2ccccc2C2OC12 (stereo not given),118 to 119 °C
18,CC(C(=O)O)c1ccc(CC(Cl)(Cl)Cl)c(F)c1 (stereo not given),92 to 94 °C
19,COC(=O)/C(C#N)=C/c1cc(OC)c(OCCCl)cc1[N+](=O)[O-],157 to 160 °C
20,CCc1c(OC)nc2nc(-c3nc(C)no3)cn2c1C,204 to 205 °C
21,COc1c(C)c2c(c(O)c1C/C=C(\C)CCC(=O)N1C(=O)OC[C@@H]1Cc1ccccc1)C(=O)OC2,112 to 113 °C
22,CCN1CCCC1CNC(=O)c1cc([N+](=O)[O-])c(Cl)cc1OC (stereo not given),107 to 108 °C
23,CNC(=O)c1cccc(NC(=O)Cc2cccc(OCc3ccccc3)c2)c1,150 °C
24,COc1ccc(-c2cc(=O)n(CC3CC3)nc2-c2ccc(OC)cc2)cc1,129 °C

row,SMILES,melting point
1,C#CCN1C(=O)COc2ccc(-c3ncc(C(F)(F)F)cc3Cl)cc21,136 to 137 °C
2,O=c1c2cc(Br)ccc2ncn1Cc1cccnc1,162 to 164 °C
3,Cc1cccc(NC(=O)NCC(=O)N(CC(=O)OC(C)(C)C)c2ccc(Cl)cc2)c1,125 °C
4,CCN(CC)N(C(C)=O)c1nc2cc3nc(N(C(C)=O)N(CC)CC)sc3cc2s1,224 to 225 °C
5,CCCCOc1ncc(C(C)=O)cc1-c1nc2c(CC)n(C3CN(C(=O)OC(C)(C)C)C3)nc2c(=O)[nH]1,176 to 178 °C
6,CCOCc1nc2c(N)nc3ccccc3c2n1CC1(C(N)=O)CC1,230 to 232 °C
7,Nc1ccc(N2CCN(c3ccccc3OCC3COC(Cn4cncn4)(c4ccc(Cl)cc4Cl)O3)CC2)cc1 (stereo not given),187 °C
8,O=c1oc2ccccc2c(O)c1C1CC(c2ccc(Oc3ccc(-c4ccc(Cl)cc4)cc3)cc2)Cc2ccccc21 (stereo not given),132 °C
9,N#CC(CC1CCCCC1)c1n[nH]c2cc(O)ccc12 (stereo not given),175 °C
10,O=C(Nc1ccc(F)c(NC(=S)Nc2cc(Cl)cc(Cl)c2)c1)c1ccc(F)c(F)c1,197 °C
11,Cc1ccc(Br)cc1-n1nc(-c2ccc(O)cc2O)c2ccc(O)cc21,88 to 91 °C
12,COC(=O)C(CCCBr)Oc1cc2c(cc1[N+](=O)[O-])CCC2 (stereo not given),154 to 155 °C
13,CN(CCOc1ccc(CON=C(C(=O)O)c2ccccc2)cc1)c1ccccn1,93 to 94 °C
14,CC(Oc1cc2sc(NC(=O)NCCN3CCOCC3)nc2cc1F)c1c(Cl)cccc1Cl (stereo not given),200 to 205 °C
15,Cc1c(C(=O)O)cnn1-c1nc(-c2cccc(Cl)c2)cs1,258 °C
16,CN(C)C(=O)N(C)C(=O)N1CCN(c2ccc(F)cc2)CC1,83 to 84 °C
17,Clc1ccc(/C=C/C2=CCN(Cc3ccccc3)CC2)cc1,123 to 125 °C
18,CC(C)(C)C(=O)NNc1cc(F)c(C#N)cc1F,167 °C
19,CCCCc1nc(Cl)c(C=O)n1Cc1ccc(-c2ccccc2C#N)cc1,96 to 97 °C
20,COC=C(C(=O)OC)c1csc2ccc(C=Cc3ccccc3)cc12,180 to 181 °C
21,COc1ccc(-n2nc(OC(C)C)cc2-c2ccc(OCCNS(C)(=O)=O)cc2)cn1,121 to 122 °C
22,CON=C(Cl)c1ccccc1S(=O)(=O)NC(=O)Nc1nc(C)cc(OC)n1,178 to 179 °C
